The record followed here is article PMC8003416, “Modulation of Human Phenylalanine Hydroxylase by 3-Hydroxyquinolin-2(1H)-One Derivatives” (Biomolecules, 2021).

One data set deals with T1, Factor Xa (FXa) (Bos taurus, UniProt P00743).
T1 construct: purchased New England Biolabs
The data set is described as follows: Factor Xa activity control with Boc-Ile-Glu-Gly-Arg-AMC. It is filed as biochemical. The settings on record: 100 μM compound; for FXa relative (residual) enzyme activity: 1% DMSO control = 100%; for Factor Xa Abs/min: control 597 ± 16. On the procedure:
(§1) Self-assembly of the dimeric forms of hPAH-RD^1–120 was followed in real-time at 25 °C upon cleavage of MBP-FXa-hPAH-RD^1–120 with FXa (New England Biolabs) to release the MBP fusion partner. Assays (n = 3) were performed in the absence or presence of tested compounds as described in [17]. Briefly, FXa (at a final ratio 1:150 (w/w) relative to the fusion protein) was added to the reaction mixture containing the MBP-FXa-hPAH-RD^1–120 fusion protein (0.74 mg/mL), 20 mM Na-HEPES, 100 mM NaCl, pH 7.0 and tested 3HQ (100 μM). The increase in absorbance at 350 nm was followed for 180 min on a FLUOstar Omega (BMG Labtech) microplate reader. A shaking step was introduced before each measurement. Appropriate control assays were performed and included: (i) a positive control consisting of MBP-FXa-hPAH-RD^1–120 in the presence of FXa, 1% DMSO and in the absence of compounds; and (ii) a negative control consisting of MBP-FXa-hPAH-RD^1–120 in the absence of FXa and compounds. For all the assays, aliquots of the aggregation reaction were collected at the end of the reaction (180 min) and analyzed by SDS-PAGE to confirm the extent of MBP cleavage by FXa. In addition, the effect of tested compounds on FXa activity was monitored using the synthetic FXa substrate Boc–Ile–Glu-Gly–Arg–AMC (t-(Butyloxycarbonyl)-isoleucylglutamylglycylarginyl-7-amido-4-methylcoumarin; from Bachem). Assays (n = 3) were performed in a 96-well plate, in a final volume of 200 μL containing 20 mM Na-HEPES, 100 mM NaCl, pH 7.0, 5 μg/mL of FXa, 50 μM of Boc–Ile-Glu–Gly–Arg–AMC and 100 μM of 3HQ derivatives. Fluorescence was measured in real-time (λexc 360 nm and λem 460 nm) during 30 min, at 25 °C. Controls were performed using substrate alone with 1% DMSO (negative control) and FXa with no compounds and 1% DMSO (positive control).

The nature of data set [1]: Alamar Blue cell viability assay. The settings on record: human, HEK-293T cells. It is filed as cell-based. On the procedure:
(§2) Cytotoxicity of selected 3HQs was assessed in HEK-293T cells using the Alamar Blue assay as a general cell viability endpoint method that monitors the cellular metabolic state, and the propidium iodide (PI) exclusion assay was used to evaluate membrane integrity essentially as described. The 3HQs were tested at a final concentration of 50 and 100 μM (two independent assays; five replicates each). Control assays were performed using 1% DMSO (negative control), or SDS at 1 mg/mL as a positive control of cell death in the PI assay. HEK-293T cells were seeded in sterile flat bottom 96-well tissue culture plates, in RPMI 1640 culture medium, supplemented with 10% fetal bovine serum, 100 units/mL of penicillin G (sodium salt), 100 μg/mL of streptomycin sulphate and 2 mM L-glutamine, at a cell density of 2 × 10^4 cells per well. Cells were incubated at 37 °C and 5% CO2. The culture medium was replaced by fresh medium (supplemented as above) containing the different 3HQs to be analyzed. After 24 h incubation, the culture medium was replaced by […] PI (Sigma-Aldrich) in fresh medium (stock solution 1.5 mM in DMSO) and fluorescence was measured (λexc 485 nm, λem 590 nm) in a FLUOstar Omega microplate reader. The Alamar Blue assay was performed by replacing the culture medium with fresh medium containing 5 mM resazurin (Invitrogen). The cells were further incubated for 3 h and fluorescence was measured (λexc 530 nm, λem 590 nm) in a FLUOstar Omega microplate reader (BMG Labtech). The relative PI uptake and cell viability (%) were calculated using Equations (3) and (4), respectively. Relative PI uptake = Fluorescence intensitysample/Fluorescence intensitynegative control(3) Relative cell viability (%) = Fluorescence intensitysample/Fluorescence intensitycontrol × 100(4)
A general note: The colour change of resazurin is a common sign of viable cells or microbes.

In a further data set the test system is HEK-293T cells. The data set is described as follows: Propidium iodide exclusion assay (membrane integrity). In kind it is cell-based. As to conditions: 100 μM, 24 h; negative control 1.0 ± 0.1. Here is the method: as §2, with “HEK-293T cells were seeded in sterile flat bottom 96-well tissue culture plates, in RPMI 1640 culture medium, supplemented with 10% fetal bovine serum, 100 units/mL of penicillin G (sodium salt), 100 μg/mL of streptomycin sulphate and 2 mM L-glutamine, at a cell density of 2 × 10^4 cells per well. Cells were incubated at 37 °C and 5% CO2.” left out, “The Alamar Blue assay was performed by replacing the culture medium with fresh medium containing 5 mM resazurin (Invitrogen).” left out

Data set [2] concerns the target T2, hPAH-RD^1–120 (N-terminal regulatory domain) (Homo sapiens, UniProt P00439).
T2 construct: consisting solely of the N-terminal regulatory domain (amino acids 1–120); made in house; host or cells: E. coli TB1
T2 sequence (P00439 1-120): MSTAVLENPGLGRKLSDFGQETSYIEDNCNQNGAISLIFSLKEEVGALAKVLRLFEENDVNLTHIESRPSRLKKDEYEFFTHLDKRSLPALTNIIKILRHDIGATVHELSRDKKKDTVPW
The data set is described as follows: Light scattering assay of hPAH-RD1–120 self-association. Here is the method:
as §1

T1 sequence (P00743 234-492 limits assumed): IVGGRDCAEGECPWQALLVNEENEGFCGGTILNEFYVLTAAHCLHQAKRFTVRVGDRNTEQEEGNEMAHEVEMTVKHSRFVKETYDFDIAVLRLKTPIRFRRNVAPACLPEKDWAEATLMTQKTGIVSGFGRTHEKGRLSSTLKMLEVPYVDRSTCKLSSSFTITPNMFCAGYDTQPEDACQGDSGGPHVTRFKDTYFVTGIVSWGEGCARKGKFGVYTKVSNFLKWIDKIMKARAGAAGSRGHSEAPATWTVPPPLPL
T1 sequence (P00743 41-180 partner limits assumed): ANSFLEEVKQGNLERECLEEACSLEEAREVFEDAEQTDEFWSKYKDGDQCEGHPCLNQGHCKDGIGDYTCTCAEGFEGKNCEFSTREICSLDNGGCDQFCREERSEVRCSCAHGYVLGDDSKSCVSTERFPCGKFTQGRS

What is called viability is a read-out of living cells in per cent, often relative to untreated cells. Take `COC(=O)CC[C@H](NC(=O)c1c(O)c(=O)[nH]c2ccc(OC(F)(F)F)cc12)C(=O)OC` [Compound 9]: at Factor Xa (FXa), the “FXa relative (residual) enzyme activity” value amounted to 77% and the “Factor Xa Abs/min” value is reported as 465 ± 29 Abs/min. In data set [1], the viability at 24 h, 50 µM is 85 ± 32% and the viability at 24 h, 100 µM turned out to be 82 ± 13%. For the same molecule, in the data set on HEK-293T cells, the “relative PI uptake” value is reported as 1.0 ± 0.0.

Take `COC(=O)CNC(=O)c1c(O)c(=O)[nH]c2ccc(OC(F)(F)F)cc12` [Compound 11]: the “effect on hPAH-RD^1–120 aggregation” value in data set [2] (100 μM, 180 min, 25 °C) is reported as “no direct evidence of a direct binding to hPAH-RD^1–120 was obtained”. Besides, at Factor Xa (FXa), the “FXa relative (residual) enzyme activity” value is 69% and the “Factor Xa Abs/min” value was found to be 407 ± 8 Abs/min. Also, in data set [1], the viability at 24 h, 50 µM worked out at 94 ± 3% and the viability at 24 h, 100 µM stood at 101 ± 5%. The “relative PI uptake” value in the data set with HEK-293T cells was 1.0 ± 0.1.

With `N[C@@H](Cc1ccccc1)C(=O)O` [L-Phe, L-phenylalanine, reference compound], the “effect on hPAH-RD^1–120 aggregation” value in data set [2] (100 μM, 180 min, 25 °C) is “only slightly prevented hPAH-RD^1–120 aggregation”; in data set [2] (1 mM L-Phe), “completely blocked it”.
